What was measured:
[1] = system: retinal neurons; assay: Growth cone collapse assay, nasal retina explants; type: cell-based, chicken; settings: for ephrin-A5 Fc induced growth cone collapse: 1 μg/mL ephrin-A5 Fc, 400 μM compound, 5 μM KYL peptide; for shape of unstimulated growth cones: concentrations as high as 400 μM
Experimental: FIGS. 8A-8F. Compounds 1 and 2 block EphA4-dependent growth cone collapse in retinal neurons. A. Explants from embryonic day 6 chicken embryonic were preincubated with 5 μM KYL peptide for 15 min, stimulated for 30 min with 1 μg/mL ephrin-A5 Fc or Fc as a control in the continued presence of the peptide, and stained with rhodamine-phalloidin to label filamentous actin. B. Histogram showing the mean percentages of collapsed growth cones. Growth cones were scored as collapsed when no lamellipodia or filopodia were visible at the tip of the neurite. Approximately 30-200 growth cones per condition were scored in each experiment and error bars indicate standard error from 3 independent experiments. C-F. Experiments were performed as in (A), except that retinal explants were treated with 400 μM compound 1 (C,D) or compound 2 (E,F). Approximately 80-250 growth cones per condition were scored in each experiment, and error bars indicate standard error from 3 experiments. Collapsed growth cones under different conditions were compared to those in the Fc control condition by one-way ANOVA and Dunnett's post test. *P<0.05 and **P<0.01. Scale bars in (A), (C), (E)=[…].
Growth Cone Collapse Assay—Nasal retina explants from embryonic day 6 chicken embryos were cultured on coverslips coated with 200 μg/mL poly-L-lysine and 20 μg/mL lamining for 12 to 24 hours in DMEM/F-12 culture medium containing 10% FBS and 0.4% methylcellulose. Three hours before adding the Fc fusion proteins, the medium was changed to DMEM/F-12 without methylcellulose. The explants were incubated for 15 min with the KYL peptide or the chemical compounds and then stimulated for 30 min with 1 μg/mL preclustered ephrin-A5 Fc or Fc as a control. The cultures were fixed for 30 min in 4% paraformaldehyde/4% sucrose in phosphate buffered saline (PBS), permeabilized in 0.1% Triton X-100 in PBS and stained with rhodamine-conjugated phalloidin (Invitrogen, Carlsbad, Calif.). Cells were photographed under a fluorescence microscope and growth cones where scored in a blinded manner as collapsed when no lamellipodia or filopodia were present at the tip of the neurite.

[2] = biological target: EphA2 (Homo sapiens, UniProt P29317); assay: EphA2 tyrosine phosphorylation in HUVE endothelial cells treated with TNFα; type: cell-based; set-up: endogenous in cells
Experimental: FIGS. 6A-6F. A. HT22 neuronal cells pretreated with the indicated concentrations of compounds 1 or 2 for 15 min were stimulated with 0.5 μg/mL ephrin-A5 Fc (+) or Fc as a control (−) for 20 min in the continued presence of the compounds. EphA4 immunoprecipitates were probed with anti-phosphotyrosine antibody (PTyr) and reprobed for EphA4. C indicates immunoprecipitations performed with control antibodies from non-immunized rabbits. […] Error bars represent the standard error from 4 experiments for compound 1 and 3 experiments for compound 2. […] C. COS7 cells pretreated with the indicated concentrations of compounds 1 or 2 for 15 min were stimulated with 0.1 μg/mL ephrin-A1 Fc or Fc as a control in the continued presence of the compounds. EphA2 immunoprecipitates were probed with anti-phosphotyrosine antibody (PTyr) and reprobed for EphA2. C indicates immunoprecipitations performed with control antibodies. […] Levels of EphA2 phosphorylation quantified from immunoblots and normalized to the amount of immunoprecipitated EphA2 were also performed. […]
Measurement of Receptor Tyrosine Phosphorylation in Cells—HT22 neuronal cells, which endogenously express EphA4, are derived from immortalized mouse hippocampal neurons (Li et al. (1997) Neuron 19(2), 453-463). […] The protein concentration was calculated using the BCA protein assay kit (Pierce Biotecnology, Rockford, Ill.). […]

Sequence of EphA2 (P29317 24-976): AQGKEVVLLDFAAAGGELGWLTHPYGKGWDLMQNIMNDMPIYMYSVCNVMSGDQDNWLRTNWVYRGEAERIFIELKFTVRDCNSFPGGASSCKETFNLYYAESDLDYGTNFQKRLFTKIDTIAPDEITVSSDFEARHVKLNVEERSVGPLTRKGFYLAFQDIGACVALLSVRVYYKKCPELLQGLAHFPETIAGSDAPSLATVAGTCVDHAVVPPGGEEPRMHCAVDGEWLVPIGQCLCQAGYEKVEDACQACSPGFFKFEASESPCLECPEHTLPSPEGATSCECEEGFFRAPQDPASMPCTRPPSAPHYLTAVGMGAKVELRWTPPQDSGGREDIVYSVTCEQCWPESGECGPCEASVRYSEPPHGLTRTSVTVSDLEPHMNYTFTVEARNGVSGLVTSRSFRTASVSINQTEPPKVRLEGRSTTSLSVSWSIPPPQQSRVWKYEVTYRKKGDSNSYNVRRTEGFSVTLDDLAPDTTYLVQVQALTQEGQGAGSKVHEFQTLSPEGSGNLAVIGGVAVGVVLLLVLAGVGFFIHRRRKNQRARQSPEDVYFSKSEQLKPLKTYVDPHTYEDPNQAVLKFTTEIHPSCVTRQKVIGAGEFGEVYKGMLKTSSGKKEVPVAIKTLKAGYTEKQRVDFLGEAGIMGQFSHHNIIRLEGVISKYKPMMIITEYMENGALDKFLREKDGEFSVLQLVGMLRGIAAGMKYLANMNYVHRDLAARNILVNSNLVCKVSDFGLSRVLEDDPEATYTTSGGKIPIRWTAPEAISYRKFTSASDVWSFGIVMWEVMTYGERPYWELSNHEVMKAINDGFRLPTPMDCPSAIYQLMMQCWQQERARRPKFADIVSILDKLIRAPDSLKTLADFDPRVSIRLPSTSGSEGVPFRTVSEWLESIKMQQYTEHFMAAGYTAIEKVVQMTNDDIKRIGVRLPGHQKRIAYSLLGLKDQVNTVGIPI

In the case of `Cc1ccc(C)n1-c1ccc(C(=O)O)c(O)c1` [compound 1, 4-(2,5-dimethyl-pyrrol-1-yl)-2-hydroxy-benzoic acid], the “ephrin-A5 Fc induced growth cone collapse” value [1] is reported as “block”, the “ephrin-A5 Fc induced growth cone collapse” value ([1]; listed as Compound 1) is reported as “blocked” and the “shape of unstimulated growth cones” value [1] is reported as “neither the KYL peptide nor the two compounds at concentrations as high as 400 μM affected the shape”. The “tyrosine phosphorylation of endogenous EphA2” value [2] was “inhibited”.

In the case of `Cc1ccc(C)n1-c1ccc(O)c(C(=O)O)c1` [compound 2, 5-(2,5 dimethyl-pyrrol-1-yl)-2-hydroxy-benzoic acid], the “ephrin-A5 Fc induced growth cone collapse” value [1] is reported as “block”, the “shape of unstimulated growth cones” value [1] is reported as “neither the KYL peptide nor the two compounds at concentrations as high as 400 μM affected the shape” and the “tyrosine phosphorylation of endogenous EphA2” value [2] is reported as “inhibited”.
